Read-outs that look alike come from different tables or passages of the source.

IC50 and Kd data for 22 molecules are collected here from US12428416B2 (California Institute of Technology, priority 2018, dated 2025).

Experiment [1] concerns drug-sensitive cell lines of Table 4. The experiment is described as follows: Cell line growth retardation assay, average over sensitive cohort. It is filed as cell-based, Human. The settings on record: geometric mean of IC50s over sensitive cohort (Table 4), 6 days growth, read-out: AvgSens IC50. Here is the method: (§1) Cell Line Growth Retardation Assay
(§2) Cells were seeded at densities of 1,000-5,000 cells per well in 48-well tissue culture plates. After a 24 h rest period, cells were treated with compound at 10 μM, 2 μM, 0.4 μM, 0.08 μM, 0.016 μM, and 0.0032 μM. A group of cells were treated with the vehicle in which the compound was prepared and served as a control. The cells were grown in the presence of compounds for 6 days and were counted on day 0 and day 6. All cell counting was performed using a Synentec Cellavista plate imager. […] Growth inhibition was calculated as a ratio of cell population doublings in the presence of compound versus the absence of compound. […] IC50 values for each compound were calculated by fitting curves to data points from each dose-response assay using the Proc NLIN function in SAS for Windows version 9.2 (SAS Institute, Inc.).
(§3) Designation of Sensitivity and Resistant Cohorts and Calculation of Average IC50 Values
(§4) Human cancer cell lines were grouped as “sensitive” or “resistant” to ERK1 inhibition based on whether their growth was retarded by KO-947 (i.e., 1,5,6,8-tetrahydro-6-(phenylmethyl)-3-(4-pyridinyl)-7H-pyrazolo[4,3-g]quinazolin-7-one) and SCH772984 (i.e., (3R)-1-[2-oxo-2-[4-[4-(2-pyrimidinyl)phenyl]-1-piperazinyl]ethyl]-N-[3-(4-pyridinyl)-1H-indazol-5-yl]-3-pyrrolidinecarboxamide) (data not shown; see Table 4). These sensitive and resistant cohorts were interrogated for response to each compound, and IC50s were calculated for each cell line using the same technique described above. Average IC50s for the sensitive and resistant cohorts were calculated as geometric means of the group.

Experiment [2] deals with ERK1 (Homo sapiens, UniProt P27361). The experiment is described as follows: ERK1 and 2 Enzymatic Inhibition Assay (ERK1). It is filed as biochemical. To be noted: 10 assay concentrations 2×10^−6 M to 6×10^−11 M, 1% DMSO. Here is the method: (§5) ERK1 and 2 Enzymatic Inhibition Assay
Sequence of ERK1 (P27361 whole entry): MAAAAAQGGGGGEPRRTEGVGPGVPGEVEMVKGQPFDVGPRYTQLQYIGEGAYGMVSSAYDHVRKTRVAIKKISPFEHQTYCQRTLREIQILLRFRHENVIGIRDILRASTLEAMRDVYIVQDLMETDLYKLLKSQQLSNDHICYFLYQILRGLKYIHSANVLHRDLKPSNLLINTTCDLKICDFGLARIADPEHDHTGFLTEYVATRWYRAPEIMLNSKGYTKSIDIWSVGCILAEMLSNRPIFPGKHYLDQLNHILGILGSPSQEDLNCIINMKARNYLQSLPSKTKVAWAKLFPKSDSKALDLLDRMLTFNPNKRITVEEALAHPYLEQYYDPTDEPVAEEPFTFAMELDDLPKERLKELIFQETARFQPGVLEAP
(§6) For the Ki determination assay, 200 μM stock solutions of compounds were subjected to a serial, semi-logarithmic dilution using 100% DMSO as a solvent. 10 distinct concentrations were prepared, with a dilution endpoint of 6×10^−9 M in 100% DMSO. 100% DMSO was used as a control. 10 μL from each of the serial dilutions were aliquoted into separate wells of a 96-well plate and 90 μL of water were added to each of those wells. The plate was shaken thoroughly, and 5 μL from each of the plate's wells were transferred into wells of the assay plate. The final volume of wells in the assay plate was 50 μL. All compounds were tested at 10 assay concentrations in the range from 2×10^−6 M to 6×10^−11 M. The final DMSO concentration in the wells of the assay plate was 1% in all cases.

Experiment [3] concerns the target ERK2 (Homo sapiens, UniProt P28482). Description: ERK1 and 2 Enzymatic Inhibition Assay (ERK2). Type of experiment: biochemical. The settings on record: 10 assay concentrations 2×10^−6 M to 6×10^−11 M, 1% DMSO. The protocol: as §5, §6
Experiment [4] concerns drug-resistant cell lines of Table 4. The experiment is described as follows: Cell line growth retardation assay, average over resistant cohort. It is filed as cell-based, Human. To be noted: geometric mean of IC50s over resistant cohort (Table 4), 6 days growth, read-out: AvgRes IC50. The protocol:
as §1, §2, §3, §4

Sequence of ERK2 (P28482 whole entry): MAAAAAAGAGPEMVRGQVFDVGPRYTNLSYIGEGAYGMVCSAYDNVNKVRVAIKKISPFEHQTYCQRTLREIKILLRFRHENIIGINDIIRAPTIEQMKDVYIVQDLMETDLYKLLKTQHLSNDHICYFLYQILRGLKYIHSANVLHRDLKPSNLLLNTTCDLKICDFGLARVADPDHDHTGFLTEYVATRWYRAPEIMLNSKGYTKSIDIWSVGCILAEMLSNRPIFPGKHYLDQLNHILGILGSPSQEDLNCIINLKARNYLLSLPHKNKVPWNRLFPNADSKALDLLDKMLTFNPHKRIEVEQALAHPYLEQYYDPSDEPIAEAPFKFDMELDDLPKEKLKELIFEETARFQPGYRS

Broadly, the IC50 is the concentration at which inhibition is half-maximal. Usually Kd stands for a measure of binding affinity in units of concentration. A higher Kd goes with a looser complex. In the case of `CC(NC(=O)c1ncc(-c2c[nH]c3ncc(N4CCC45COC5)cc23)cn1)c1ccccc1` (stereo in doubt) [Compound 43, (R)-5-(5-(6-oxa-1-azaspiro[3.3]heptan-6-yl)-1H-pyrrolo[2,3-b]pyridin-3-yl)-N-(1-phenylethyl)pyrimidine-2-carboxamide], the concentration for half-maximal inhibition (IC50) in experiment [1] (Homo sapiens, 144 h) was > 500 nM; in experiment [4] (Homo sapiens, 144 h), > 500 nM. Moreover, the Kd in experiment [2] is 11 to 100 nM; in experiment [3], > 100 nM.
For `CC(NC(=O)c1ncc(-c2c[nH]c3ncc(Br)cc23)cn1)c1ccccc1` (stereo in doubt) [Compound 67, (R)-5-(5-bromo-1H-pyrrolo[2,3-b]pyridin-3-yl)-N-(1-phenylethyl)pyrimidine-2-carboxamide], the IC50 in experiment [1] (Homo sapiens, 144 h) is > 500 nM; in experiment [4] (Homo sapiens, 144 h), > 500 nM. Moreover, the Kd in experiment [2] and in experiment [3] was 11 to 100 nM throughout.
As for `Cc1ccccc1CCNC(=O)c1ncc(-c2c[nH]c3ncc(N4CCOCC4)cc23)cn1` [Compound 65, N-(2-methylphenethyl)-5-(5-morpholino-1H-pyrrolo[2,3-b]pyridin-3-yl)pyrimidine-2-carboxamide], the half-maximal inhibitory concentration (IC50) in experiment [1] (Homo sapiens, 144 h) was ≤ 250 nM; in experiment [4] (Homo sapiens, 144 h), > 500 nM. In addition, the Kd in experiment [2] and in experiment [3] was ≤ 10 nM each time.
Consider `Cc1cc(-c2cnc3[nH]cc(-c4cnc(C(=O)NC(C)c5ccccc5)nc4)c3c2)ccn1` (stereo in doubt) [Compound 40, (R)-5-(5-(2-methylpyridin-4-yl)-1H-pyrrolo[2,3-b]pyridin-3-yl)-N-(1-phenylethyl)pyrimidine-2-carboxamide], for which the IC50 in experiment [1] (Homo sapiens, 144 h) is ≤ 250 nM; in experiment [4] (Homo sapiens, 144 h) it was > 500 nM. For the same molecule, the Kd in experiment [2] and in experiment [3] was ≤ 10 nM throughout.
As for `O=C(NCCc1ccccc1F)c1ncc(-c2c[nH]c3ncc(N4CCOCC4)cc23)cn1` [Compound 58, N-(2-fluorophenethyl)-5-(5-morpholino-1H-pyrrolo[2,3-b]pyridin-3-yl)pyrimidine-2-carboxamide], the Kd in experiment [2] and in experiment [3] was ≤ 10 nM throughout.
With `C[C@H]1N=C(c2ncc(-c3c[nH]c4ncc(N5CCOCC5)cc34)cn2)O[C@H]1c1ccccc1` [Compound 56, 4-(3-(2-((4R,5S)-4-methyl-5-phenyl-4,5-dihydrooxazol-2-yl)pyrimidin-5-yl)-1H-pyrrolo[2,3-b]pyridin-5-yl)morpholine], the IC50 is > 500 nM in experiment [1] (Homo sapiens, 144 h) and > 500 nM in experiment [4] (Homo sapiens, 144 h). The equilibrium dissociation constant (Kd) in experiment [2] and in experiment [3] was 11 to 100 nM throughout.
In the case of `O=C(Nc1ccccc1)c1ncc(-c2c[nH]c3ncc(N4CCOCC4)cc23)cn1` [Compound 23, 5-(5-morpholino-1H-pyrrolo[2,3-b]pyridin-3-yl)-N-phenylpyrimidine-2-carboxamide], the Kd in experiment [2] and in experiment [3] was > 100 nM in each case.
Consider `C[C@@H](Cc1ccccc1)NC(=O)c1ncc(-c2c[nH]c3ncc(N4CCOCC4)cc23)cn1` [Compound 30, (S)-5-(5-morpholino-1H-pyrrolo[2,3-b]pyridin-3-yl)-N-(1-phenylpropan-2-yl)pyrimidine-2-carboxamide], for which the Kd in experiment [2] and in experiment [3] was > 100 nM each time.
As to `C[C@H](NC(=O)c1ncc(-c2c[nH]c3ncc(N4CCOCC4)cc23)cn1)c1ccccc1Cl` [Compound 45, (S)—N-(1-(2-chlorophenyl)ethyl)-5-(5-morpholino-1H-pyrrolo[2,3-b]pyridin-3-yl)pyrimidine-2-carboxamide], the 50% inhibitory concentration (IC50) was ≤ 250 nM in experiment [1] (Homo sapiens, 144 h) and > 500 nM in experiment [4] (Homo sapiens, 144 h). In addition, the Kd in experiment [2] and in experiment [3] was ≤ 10 nM throughout.
For the molecule `CC(NC(=O)c1ncc(-c2c[nH]c3ncc(N4CC5(COC5)C4)cc23)cn1)c1ccccc1` (stereo in doubt) [Compound 42, (R)-5-(5-(2-oxa-6-azaspiro[3.3]heptan-6-yl)-1H-pyrrolo[2,3-b]pyridin-3-yl)-N-(1-phenylethyl)pyrimidine-2-carboxamide], the IC50 in experiment [1] (Homo sapiens, 144 h) is > 500 nM; in experiment [4] (Homo sapiens, 144 h) it was > 500 nM. Besides, the Kd in experiment [2] and in experiment [3] was ≤ 10 nM throughout.
With `COc1ccccc1[C@H](C)NC(=O)c1ncc(-c2c[nH]c3ncc(N4CCOCC4)cc23)cn1` [Compound 46, (S)—N-(1-(2-methoxyphenyl)ethyl)-5-(5-morpholino-1H-pyrrolo[2,3-b]pyridin-3-yl)pyrimidine-2-carboxamide], the IC50 in experiment [1] (Homo sapiens, 144 h) is 251 to 500 nM; in experiment [4] (Homo sapiens, 144 h), > 500 nM. The Kd in experiment [2] and in experiment [3] was ≤ 10 nM throughout.
With `O=C(NCCc1ccccc1C(F)(F)F)c1ncc(-c2c[nH]c3ncc(N4CCOCC4)cc23)cn1` [Compound 59, 5-(5-morpholino-1H-pyrrolo[2,3-b]pyridin-3-yl)-N-(2-(trifluoromethyl)phenethyl)pyrimidine-2-carboxamide], the Kd in experiment [2] is 11 to 100 nM; in experiment [3] it was ≤ 10 nM.
With `O=C(NC(c1ccccc1)C1CC1)c1ncc(-c2c[nH]c3ncc(N4CCOCC4)cc23)cn1` (centres unmarked) [Compound 49, N-(cyclopropyl(phenyl)methyl)-5-(5-morpholino-1H-pyrrolo[2,3-b]pyridin-3-yl)pyrimidine-2-carboxamide], the IC50 in experiment [1] (Homo sapiens, 144 h) is 251 to 500 nM; in experiment [4] (Homo sapiens, 144 h) it was > 500 nM. Besides, the equilibrium dissociation constant (Kd) in experiment [2] and in experiment [3] was ≤ 10 nM throughout.
As to `CN(Cc1ccccc1)C(=O)c1ncc(-c2c[nH]c3ncc(N4CCOCC4)cc23)cn1` [Compound 8, N-benzyl-N-methyl-5-(5-morpholino-1H-pyrrolo[2,3-b]pyridin-3-yl)pyrimidine-2-carboxamide], the IC50 in experiment [1] (Homo sapiens, 144 h) was > 500 nM; in experiment [4] (Homo sapiens, 144 h) it was > 500 nM. Also, the dissociation constant Kd in experiment [2] and in experiment [3] was > 100 nM in each case.
With `O=C(NCCc1ccc(F)cc1)c1ncc(-c2c[nH]c3ncc(N4CCOCC4)cc23)cn1` [Compound 62, N-(4-fluorophenethyl)-5-(5-morpholino-1H-pyrrolo[2,3-b]pyridin-3-yl)pyrimidine-2-carboxamide], the IC50 was > 500 nM in experiment [1] (Homo sapiens, 144 h) and > 500 nM in experiment [4] (Homo sapiens, 144 h). Also, the dissociation constant (Kd) was ≤ 10 nM in experiment [2] and 11 to 100 nM in experiment [3].
As to `C[C@@H](CNC(=O)c1ncc(-c2c[nH]c3ncc(N4CCOCC4)cc23)cn1)c1ccccc1` [Compound 33], the Kd in experiment [2] and in experiment [3] was 11 to 100 nM in each case.
Turning to `C[C@H](NC(=O)c1ncc(-c2c[nH]c3ncc(N4CCOCC4)cc23)cn1)c1ccccc1C#N` [Compound 48, (S)—N-(1-(2-cyanophenyl)ethyl)-5-(5-morpholino-1H-pyrrolo[2,3-b]pyridin-3-yl)pyrimidine-2-carboxamide], the Kd was ≤ 10 nM in experiment [2] and 11 to 100 nM in experiment [3].
Regarding `c1ccc([C@@H]2COC(c3ncc(-c4c[nH]c5ncc(N6CCOCC6)cc45)cn3)=N2)cc1` [Compound 52, (R)-4-(3-(2-(4-phenyl-4,5-dihydrooxazol-2-yl)pyrimidin-5-yl)-1H-pyrrolo[2,3-b]pyridin-5-yl)morpholine], the IC50 in experiment [1] and in experiment [4] was > 500 nM in each case.
Consider `C[C@H](NC(=O)c1ncc(-c2c[nH]c3ncc(NCCO)cc23)cn1)c1ccccc1` [Compound 68], for which the dissociation constant Kd in experiment [2] and in experiment [3] was 11 to 100 nM in each case.
As for `O=C(NCCc1cccc(C(F)(F)F)c1)c1ncc(-c2c[nH]c3ncc(N4CCOCC4)cc23)cn1` [Compound 64, 5-(5-morpholino-1H-pyrrolo[2,3-b]pyridin-3-yl)-N-(3-(trifluoromethyl)phenethyl)pyrimidine-2-carboxamide], the Kd in experiment [2] and in experiment [3] was 11 to 100 nM each time.
With `c1ccc([C@@H]2CN=C(c3ncc(-c4c[nH]c5ncc(N6CCOCC6)cc45)cn3)O2)cc1` [Compound 54, (R)-4-(3-(2-(5-phenyl-4,5-dihydrooxazol-2-yl)pyrimidin-5-yl)-1H-pyrrolo[2,3-b]pyridin-5-yl)morpholine], the IC50 in experiment [4] is > 500 nM.
With `O=C(NCCc1cccc(F)c1)c1ncc(-c2c[nH]c3ncc(N4CCOCC4)cc23)cn1` [Compound 63, N-(3-fluorophenethyl)-5-(5-morpholino-1H-pyrrolo[2,3-b]pyridin-3-yl)pyrimidine-2-carboxamide], the Kd in experiment [2] and in experiment [3] was 11 to 100 nM in each case.
